Common to all, as to assay type: cell-based
Assay [1] deals with T1, human TLR7 (Homo sapiens, UniProt Q9NYK1).
T1 construct: host or cells: HEK-Blue cells
T1 sequence (Q9NYK1 27-1049): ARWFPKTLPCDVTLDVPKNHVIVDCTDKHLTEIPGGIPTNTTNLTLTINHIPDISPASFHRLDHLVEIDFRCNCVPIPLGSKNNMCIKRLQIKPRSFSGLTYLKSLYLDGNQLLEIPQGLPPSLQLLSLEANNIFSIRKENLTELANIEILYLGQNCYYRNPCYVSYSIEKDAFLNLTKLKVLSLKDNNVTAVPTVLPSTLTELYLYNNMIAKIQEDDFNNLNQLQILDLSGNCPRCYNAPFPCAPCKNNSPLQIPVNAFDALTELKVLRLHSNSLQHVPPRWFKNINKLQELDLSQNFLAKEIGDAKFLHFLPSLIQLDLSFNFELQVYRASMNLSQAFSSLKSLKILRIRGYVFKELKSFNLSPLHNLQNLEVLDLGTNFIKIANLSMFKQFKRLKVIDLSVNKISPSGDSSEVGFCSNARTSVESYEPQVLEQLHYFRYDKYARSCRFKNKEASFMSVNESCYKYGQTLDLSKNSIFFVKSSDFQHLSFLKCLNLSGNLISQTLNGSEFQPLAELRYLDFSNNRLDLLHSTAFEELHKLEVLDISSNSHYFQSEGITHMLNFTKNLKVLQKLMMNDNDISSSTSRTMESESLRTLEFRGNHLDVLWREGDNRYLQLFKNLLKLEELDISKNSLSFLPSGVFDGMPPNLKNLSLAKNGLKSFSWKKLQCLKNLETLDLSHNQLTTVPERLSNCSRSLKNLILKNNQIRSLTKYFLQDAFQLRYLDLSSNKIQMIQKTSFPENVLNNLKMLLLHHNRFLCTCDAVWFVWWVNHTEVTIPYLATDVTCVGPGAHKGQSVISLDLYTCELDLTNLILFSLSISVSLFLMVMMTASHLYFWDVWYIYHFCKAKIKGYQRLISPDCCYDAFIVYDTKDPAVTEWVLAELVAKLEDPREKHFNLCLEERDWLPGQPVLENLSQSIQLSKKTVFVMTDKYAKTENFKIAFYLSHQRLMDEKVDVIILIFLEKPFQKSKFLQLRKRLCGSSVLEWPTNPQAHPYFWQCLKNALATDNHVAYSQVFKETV
Nature of the assay: TLR7 inhibition reporter assay (HEK-Blue cells, SEAP reporter, gardiquimod stimulation). To be noted: HEK-Blue cells overexpressing human TLR7, SEAP reporter, gardiquimod 7.5 μM. An outline of the steps:
(§1)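 Cells were pre-treated 30 min at room temperature with compound (final 0.05 nM–50 μM), then stimulated with gardiquimod 7.5 μM (TLR7), R848 15.9 μM (TLR8) or ODN2006 5 nM (TLR9). SEAP was read after 22 h at 37° C; percent inhibition scaled between agonist+DMSO and known-inhibitor wells.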

Assay [2] concerns the target T2, human TLR8 (Homo sapiens, UniProt Q9NR97).
T2 construct: host or cells: HEK-Blue cells
T2 sequence (Q9NR97 27-1041): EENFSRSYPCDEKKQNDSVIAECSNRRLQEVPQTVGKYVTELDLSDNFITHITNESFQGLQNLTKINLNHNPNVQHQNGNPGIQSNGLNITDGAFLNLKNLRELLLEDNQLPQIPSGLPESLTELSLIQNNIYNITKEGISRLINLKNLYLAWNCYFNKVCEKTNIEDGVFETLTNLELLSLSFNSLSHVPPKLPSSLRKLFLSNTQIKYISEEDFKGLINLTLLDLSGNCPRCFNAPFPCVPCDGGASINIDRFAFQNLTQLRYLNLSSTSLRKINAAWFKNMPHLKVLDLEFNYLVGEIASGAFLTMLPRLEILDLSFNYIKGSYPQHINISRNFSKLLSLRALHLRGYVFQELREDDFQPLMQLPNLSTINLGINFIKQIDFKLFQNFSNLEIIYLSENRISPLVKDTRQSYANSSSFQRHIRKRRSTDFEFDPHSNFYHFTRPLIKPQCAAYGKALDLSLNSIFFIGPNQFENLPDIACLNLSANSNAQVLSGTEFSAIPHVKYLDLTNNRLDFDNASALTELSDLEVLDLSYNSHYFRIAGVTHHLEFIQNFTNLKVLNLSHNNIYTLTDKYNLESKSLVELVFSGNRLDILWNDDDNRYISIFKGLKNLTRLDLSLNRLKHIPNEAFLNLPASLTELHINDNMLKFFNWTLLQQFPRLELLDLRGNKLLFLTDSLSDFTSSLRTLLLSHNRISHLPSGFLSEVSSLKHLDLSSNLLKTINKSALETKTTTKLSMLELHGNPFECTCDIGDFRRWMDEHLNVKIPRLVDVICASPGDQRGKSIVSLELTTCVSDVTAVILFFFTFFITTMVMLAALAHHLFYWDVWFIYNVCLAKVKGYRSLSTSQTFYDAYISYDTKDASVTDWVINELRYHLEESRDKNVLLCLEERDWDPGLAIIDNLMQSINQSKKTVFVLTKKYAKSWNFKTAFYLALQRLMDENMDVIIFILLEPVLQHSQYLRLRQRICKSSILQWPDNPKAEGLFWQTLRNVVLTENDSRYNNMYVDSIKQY
Nature of the assay: TLR8 inhibition reporter assay (HEK-Blue cells, SEAP reporter, R848 stimulation). Conditions: HEK-Blue cells overexpressing human TLR8, SEAP reporter, R848 15.9 μM. An outline of the steps: as §1

For assay [3], the target named is T3, human TLR9 (Homo sapiens, UniProt Q9NR96).
T3 construct: host or cells: HEK-Blue cells
T3 sequence (Q9NR96 26-1032): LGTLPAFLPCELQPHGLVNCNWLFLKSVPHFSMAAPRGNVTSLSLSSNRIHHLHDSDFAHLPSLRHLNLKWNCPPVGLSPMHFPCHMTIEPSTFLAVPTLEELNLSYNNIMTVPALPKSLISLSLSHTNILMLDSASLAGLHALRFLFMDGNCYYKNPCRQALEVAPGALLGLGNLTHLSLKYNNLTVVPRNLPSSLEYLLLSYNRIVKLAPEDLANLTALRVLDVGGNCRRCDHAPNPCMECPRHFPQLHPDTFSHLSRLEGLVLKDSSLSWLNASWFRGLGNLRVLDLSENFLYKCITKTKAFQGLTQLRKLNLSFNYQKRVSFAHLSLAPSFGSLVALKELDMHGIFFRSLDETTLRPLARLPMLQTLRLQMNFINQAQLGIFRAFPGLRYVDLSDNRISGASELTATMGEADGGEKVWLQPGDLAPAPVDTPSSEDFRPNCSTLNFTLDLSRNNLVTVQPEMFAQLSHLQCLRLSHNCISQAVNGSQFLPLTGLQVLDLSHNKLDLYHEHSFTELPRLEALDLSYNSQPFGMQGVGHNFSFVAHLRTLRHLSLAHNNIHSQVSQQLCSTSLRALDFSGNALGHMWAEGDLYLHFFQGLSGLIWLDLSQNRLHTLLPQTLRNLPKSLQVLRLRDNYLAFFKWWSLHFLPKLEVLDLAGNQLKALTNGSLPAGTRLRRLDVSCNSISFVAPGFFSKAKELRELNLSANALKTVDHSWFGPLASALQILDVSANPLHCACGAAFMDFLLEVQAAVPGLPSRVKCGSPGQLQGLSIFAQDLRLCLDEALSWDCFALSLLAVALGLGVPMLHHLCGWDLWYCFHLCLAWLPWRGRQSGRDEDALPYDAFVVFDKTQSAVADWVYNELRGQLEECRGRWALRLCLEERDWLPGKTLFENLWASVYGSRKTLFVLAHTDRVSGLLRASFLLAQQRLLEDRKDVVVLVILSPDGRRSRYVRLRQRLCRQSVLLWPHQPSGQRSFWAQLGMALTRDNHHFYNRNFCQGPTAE
Kind of assay: TLR9 inhibition reporter assay (HEK-Blue cells, SEAP reporter, ODN2006 stimulation). To be noted: HEK-Blue cells overexpressing human TLR9, SEAP reporter, ODN2006 5 nM. An outline of the steps: as §1

This note sets out measurements from US20230117470A1, “SUBSTITUTED PYRAZOLE COMPOUNDS AS TOLL RECEPTOR INHIBITORS” (BRISTOL-MYERS SQUIBB COMPANY, priority 2019, published 2023).

Take `Cc1cc(-c2[nH]nc(C(=O)N[C@H]3CCCN(C)C3)c2C(C)C)cn2ncnc12` [Example 162]: the IC50 is 2.6 nM in assay [1], 15.7 nM in assay [2] and 20300 nM in assay [3].

Turning to `Cc1cc(-c2[nH]nc(C(=O)N[C@H]3CCCN(C(C)C)C3)c2C(C)C)cn2ncnc12` [Example 163], the figures for the IC50 in assay [1], in assay [2] and in assay [3] were 1.59 nM, 20.6 nM and 9400 nM, respectively.

For the molecule `CCN1CCC[C@H](NC(=O)c2n[nH]c(-c3cc(C)c4ncnn4c3)c2C(C)C)C1` [Example 164], the half-maximal inhibitory concentration (IC50) came out at 1.32 nM in assay [1], 4.43 nM in assay [2] and 15600 nM in assay [3].

As for `Cc1cc(-c2[nH]nc(C(=O)N[C@H]3CCCN(CC4=NC(C)N=N4)C3)c2C(C)C)cn2ncnc12` (stereo partly drawn) [Example 165], the half-maximal inhibitory concentration (IC50) in assay [1] was found to be 1.61 nM; in assay [2] it was 14.4 nM; in assay [3] it was 22800 nM.

Regarding `Cc1cc(-c2[nH]nc(C(=O)N[C@H]3CCCN(C4COC4)C3)c2C(C)C)cn2ncnc12` [Example 166], the IC50 in assay [1] was determined as 0.88 nM; in assay [2] it was 0.87 nM; in assay [3], 383 nM.

`Cc1cc(-c2[nH]nc(C(=O)NC3CCN(CCC(F)(F)F)CC3)c2C(C)C)cn2ncnc12` [Example 169]: the IC50 in assay [1] was found to be 4.17 nM; in assay [2], 17 nM; in assay [3], 9810 nM.

`CNCCN1CCC(NC(=O)c2n[nH]c(-c3cc(C)c4ncnn4c3)c2C(C)C)CC1` [Example 170]: the IC50 in assay [1] worked out at 2.38 nM; in assay [2] it was 4.65 nM; in assay [3], 1760 nM.

Consider `COCCN1CCC(NC(=O)c2n[nH]c(-c3cc(C)c4ncnn4c3)c2C(C)C)CC1` [Example 171, 4-isopropyl-N-(1-(2-methoxyethyl)piperidin-4-yl)-5-(8-methyl-[1,2,4]triazolo[1,5-a]pyridin-6-yl)-1H-pyrazole-3-carboxamide], for which the IC50 in assay [1] was 0.78 nM; in assay [2] it was 2.21 nM; in assay [3], 879 nM.

Take `Cc1cc(-c2[nH]nc(C(=O)NC3CCN(CC(F)(F)F)CC3)c2C(C)C)cn2ncnc12` [Example 173]: the half-maximal inhibitory concentration (IC50) came out at 8.56 nM in assay [1], 7.58 nM in assay [2] and 7790 nM in assay [3].

Consider `Cc1cc(-c2[nH]nc(C(=O)NC3CCN(C(C)CS(C)(=O)=O)CC3)c2C(C)C)cn2ncnc12` (stereo not drawn) [Example 174, 4-isopropyl-5-(8-methyl-[1,2,4]triazolo[1,5-a]pyridin-6-yl)-N-(1-(1-(methylsulfonyl)propan-2-yl)piperidin-4-yl)-1H-pyrazole-3-carboxamide], for which the IC50 was found to be 1.84 nM in assay [1], 3.13 nM in assay [2] and 16000 nM in assay [3].

As to `Cc1cc(-c2c(C(C)C)c(C(=O)NC3CCN(CC(F)(F)F)CC3)nn2CC(F)(F)F)cn2ncnc12` [Example 175, 4-isopropyl-5-(8-methyl-[1,2,4]triazolo[1,5-a]pyridin-6-yl)-1-(2,2,2-trifluoroethyl)-N-(1-(2,2,2-trifluoroethyl)piperidin-4-yl)-1H-pyrazole-3-carboxamide], the half-maximal inhibitory concentration (IC50) is 3.76 nM in assay [1], 6.23 nM in assay [2] and 6250 nM in assay [3].

`Cc1cc(-c2[nH]nc(C(=O)NC3CCN(CC(=O)N(C)C)CC3)c2C(C)C)cn2ncnc12` [Example 176, N-(1-(2-(dimethylamino)-2-oxoethyl)piperidin-4-yl)-4-isopropyl-5-(8-methyl-[1,2,4]triazolo [1,5-a]pyridin-6-yl)-1H-pyrazole-3-carboxamide]: the IC50 in assay [1] came out at 23.3 nM; in assay [2], 23.7 nM; in assay [3] it was 9580 nM.

Take `Cc1cc(-c2cc(C(=O)NC3CCN(C(C)C)CC3)n[nH]2)cn2ncnc12` [Example 178, N-(1-isopropylpiperidin-4-yl)-5-(8-methyl-[1,2,4]triazolo[1,5-a]pyridin-6-yl)-1H-pyrazole-3-carboxamide]: the values for the half-maximal inhibitory concentration (IC50) in assay [1], in assay [2] and in assay [3] were 1.69 nM, 2.44 nM and 6710 nM, respectively.

For the molecule `Cc1c(C(=O)NC2CCN(C(C)C)CC2)n[nH]c1-c1cc(C)c2ncnn2c1` [Example 179, N-(1-isopropylpiperidin-4-yl)-4-methyl-5-(8-methyl-[1,2,4]triazolo[1,5-a]pyridin-6-yl)-1H-pyrazole-3-carboxamide], the IC50 in assay [1] turned out to be 9.72 nM; in assay [2], 13.5 nM; in assay [3], 7260 nM.

Regarding `CCc1c(C(=O)NC2CCN(C)CC2)n[nH]c1-c1cc(C)c2ncnn2c1` [Example 181, 4-ethyl-5-(8-methyl-[1,2,4]triazolo[1,5-a]pyridin-6-yl)-N-(1-methylpiperidin-4-yl)-1H-pyrazole-3-carboxamide], the half-maximal inhibitory concentration (IC50) in assay [1] came out at 9.92 nM; in assay [2] it was 36 nM; in assay [3], 5660 nM.
